From PubChem BioAssay AID1918954 (Molecular Pharmacology Branch, DTP, NCI, 2023)
pIC50: −log10 of the molar value.

System: MDA-MB-468 complex spheroids with HUVEC/MSC, viability
Test: Anticancer human tumor MDA-MB-468 cell line growth inhibition;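 further: spheroids exposed to agents for seven days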;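 on viability, T/C: 100% = DMSO vehicle control viability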
Conditions: for pIC50: curve of first compound; for viability, T/C: stronger effect = lower value
Summary of the method: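 Drug combinations with the LSD1 inhibitor iadademstat tested on tumor cells co-cultured as spheroids with endothelial cells and mesenchymal stem cells. Concentrations descended in half-log increments from clinical Cmax or 10 microM.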

[1] = second compound 0.1 µM, first compound 0.000316 µM
[2] = second compound 0.1 µM, first compound 0.001 µM
[3] = second compound 0.1 µM, first compound 0.00316 µM
[4] = second compound 0.1 µM, first compound 0.01 µM
[5] = second compound 0.1 µM, first compound 0.0316 µM
[6] = second compound 0.1 µM, first compound 0.1 µM
[7] = second compound 0.316 µM, first compound 0.000316 µM
[8] = second compound 0.316 µM, first compound 0.001 µM
[9] = second compound 0.316 µM, first compound 0.00316 µM
[10] = second compound 0.316 µM, first compound 0.01 µM
[11] = second compound 0.316 µM, first compound 0.0316 µM
[12] = second compound 0.316 µM, first compound 0.1 µM
[13] = second compound 1 µM, first compound 0.000316 µM
[14] = second compound 1 µM, first compound 0.001 µM
[15] = second compound 1 µM, first compound 0.00316 µM
[16] = second compound 1 µM, first compound 0.01 µM
[17] = second compound 1 µM, first compound 0.0316 µM
[18] = second compound 1 µM, first compound 0.1 µM
[19] = second compound 3.16 µM, first compound 0.000316 µM
[20] = second compound 3.16 µM, first compound 0.001 µM
[21] = second compound 3.16 µM, first compound 0.00316 µM
[22] = second compound 3.16 µM, first compound 0.01 µM
[23] = second compound 3.16 µM, first compound 0.0316 µM
[24] = second compound 3.16 µM, first compound 0.1 µM
[25] = second compound 10 µM, first compound 0.000316 µM
[26] = second compound 10 µM, first compound 0.001 µM
[27] = second compound 10 µM, first compound 0.00316 µM
[28] = second compound 10 µM, first compound 0.01 µM
[29] = second compound 10 µM, first compound 0.0316 µM
[30] = second compound 10 µM, first compound 0.1 µM

## CC(C)CC(NC(=O)C(Cc1ccccc1)NC(=O)c1cnccn1)B(O)O (stereo not given) + NC1CCC(NC2CC2c2ccccc2)CC1
Second compound 0.1 µM
  pIC50: 9.16
Second compound 0.316 µM
  pIC50: 9.23
Second compound 1 µM
  pIC50: 9.19
Second compound 3.16 µM
  pIC50: 9.19
Second compound 10 µM
  pIC50: 9.25
[1]
  viability, T/C: 102%
[2]
  viability, T/C: 26.4%
[3]
  viability, T/C: 1.52%
[4]
  viability, T/C: 0.94%
[5]
  viability, T/C: 1.06%
[6]
  viability, T/C: 1.23%
[7]
  viability, T/C: 86.6%
[8]
  viability, T/C: 19.5%
[9]
  viability, T/C: 0.94%
[10]
  viability, T/C: 1.12%
[11]
  viability, T/C: 1%
[12]
  viability, T/C: 0.68%
[13]
  viability, T/C: 94.1%
[14]
  viability, T/C: 22.2%
[15]
  viability, T/C: 0.63%
[16]
  viability, T/C: 1.08%
[17]
  viability, T/C: 1.55%
[18]
  viability, T/C: 0.88%
[19]
  viability, T/C: 91.9%
[20]
  viability, T/C: 24.5%
[21]
  viability, T/C: 1.11%
[22]
  viability, T/C: 1%
[23]
  viability, T/C: 0.77%
[24]
  viability, T/C: 1.37%
[25]
  viability, T/C: 83.9%
[26]
  viability, T/C: 16.1%
[27]
  viability, T/C: 1.08%
[28]
  viability, T/C: 0.25%
[29]
  viability, T/C: 1.63%
[30]
  viability, T/C: 2.35%

## CC(C)CC(NC(=O)CNC(=O)c1cc(Cl)ccc1Cl)B1OC(=O)CC(CC(=O)O)(C(=O)O)O1 (stereo not given) + NC1CCC(NC2CC2c2ccccc2)CC1
Second compound 0.1 µM
  pIC50: 8.41
Second compound 0.316 µM
  pIC50: 8.40
Second compound 1 µM
  pIC50: 8.48
Second compound 3.16 µM
  pIC50: 8.36
Second compound 10 µM
  pIC50: 8.52
[1]
  viability, T/C: 110%
[2]
  viability, T/C: 115%
[3]
  viability, T/C: 59.5%
[4]
  viability, T/C: 8.34%
[5]
  viability, T/C: 1.37%
[6]
  viability, T/C: 1.7%
[7]
  viability, T/C: 98.6%
[8]
  viability, T/C: 99.2%
[9]
  viability, T/C: 60.4%
[10]
  viability, T/C: 7.32%
[11]
  viability, T/C: 2.63%
[12]
  viability, T/C: 1.14%
[13]
  viability, T/C: 89.9%
[14]
  viability, T/C: 118%
[15]
  viability, T/C: 52.1%
[16]
  viability, T/C: 9.33%
[17]
  viability, T/C: 1.32%
[18]
  viability, T/C: 1.76%
[19]
  viability, T/C: 72.7%
[20]
  viability, T/C: 101%
[21]
  viability, T/C: 67%
[22]
  viability, T/C: 7.42%
[23]
  viability, T/C: 1.53%
[24]
  viability, T/C: 1.59%
[25]
  viability, T/C: 80.6%
[26]
  viability, T/C: 65.4%
[27]
  viability, T/C: 50.3%
[28]
  viability, T/C: 4.74%
[29]
  viability, T/C: 2.13%
[30]
  viability, T/C: 2.15%

## COc1cc(Nc2ncc3c(n2)-c2ccc(Cl)cc2C(c2c(F)cccc2OC)=NC3)ccc1C(=O)O + NC1CCC(NC2CC2c2ccccc2)CC1
Second compound 0.1 µM
  pIC50: 8.26
Second compound 0.316 µM
  pIC50: 8.24
Second compound 1 µM
  pIC50: 8.25
Second compound 3.16 µM
  pIC50: 8.36
Second compound 10 µM
  pIC50: 8.37
[3]
  viability, T/C: 67.1%
[4]
  viability, T/C: 31%
[5]
  viability, T/C: 15.9%
[6]
  viability, T/C: 7.27%
Second compound 0.1 µM, first compound 0.316 µM
  viability, T/C: 7.36%
Second compound 0.1 µM, first compound 1 µM
  viability, T/C: 6.36%
[9]
  viability, T/C: 70.7%
[10]
  viability, T/C: 30.2%
[11]
  viability, T/C: 16.6%
[12]
  viability, T/C: 8.6%
Second compound 0.316 µM, first compound 0.316 µM
  viability, T/C: 7.02%
Second compound 0.316 µM, first compound 1 µM
  viability, T/C: 7.03%
[15]
  viability, T/C: 69%
[16]
  viability, T/C: 29.8%
[17]
  viability, T/C: 17.8%
[18]
  viability, T/C: 8.46%
Second compound 1 µM, first compound 0.316 µM
  viability, T/C: 6.49%
Second compound 1 µM, first compound 1 µM
  viability, T/C: 7.09%
[21]
  viability, T/C: 57.8%
[22]
  viability, T/C: 30.5%
[23]
  viability, T/C: 19.4%
[24]
  viability, T/C: 9.33%
Second compound 3.16 µM, first compound 0.316 µM
  viability, T/C: 7.94%
Second compound 3.16 µM, first compound 1 µM
  viability, T/C: 6.66%
[27]
  viability, T/C: 57.7%
[28]
  viability, T/C: 28%
[29]
  viability, T/C: 19.1%
[30]
  viability, T/C: 11.6%
Second compound 10 µM, first compound 0.316 µM
  viability, T/C: 8.23%
Second compound 10 µM, first compound 1 µM
  viability, T/C: 9.73%

## O=C(C=Cc1cccc(S(=O)(=O)Nc2ccccc2)c1)NO + NC1CCC(NC2CC2c2ccccc2)CC1
Second compound 0.1 µM
  pIC50: 7.09
Second compound 0.316 µM
  pIC50: 7.11
Second compound 1 µM
  pIC50: 7.17
Second compound 3.16 µM
  pIC50: 7.21
Second compound 10 µM
  pIC50: 8.01
Second compound 0.1 µM, first compound 0.00949 µM
  viability, T/C: 90.7%
Second compound 0.1 µM, first compound 0.03 µM
  viability, T/C: 81.5%
Second compound 0.1 µM, first compound 0.0949 µM
  viability, T/C: 44.5%
Second compound 0.1 µM, first compound 0.3 µM
  viability, T/C: 15%
Second compound 0.1 µM, first compound 0.949 µM
  viability, T/C: 2.65%
Second compound 0.1 µM, first compound 3 µM
  viability, T/C: 4.46%
Second compound 0.316 µM, first compound 0.00949 µM
  viability, T/C: 86.7%
Second compound 0.316 µM, first compound 0.03 µM
  viability, T/C: 73.6%
Second compound 0.316 µM, first compound 0.0949 µM
  viability, T/C: 45.1%
Second compound 0.316 µM, first compound 0.3 µM
  viability, T/C: 17%
Second compound 0.316 µM, first compound 0.949 µM
  viability, T/C: 2.84%
Second compound 0.316 µM, first compound 3 µM
  viability, T/C: 4.29%
Second compound 1 µM, first compound 0.00949 µM
  viability, T/C: 74.1%
Second compound 1 µM, first compound 0.03 µM
  viability, T/C: 65.7%
Second compound 1 µM, first compound 0.0949 µM
  viability, T/C: 42.9%
Second compound 1 µM, first compound 0.3 µM
  viability, T/C: 18.7%
Second compound 1 µM, first compound 0.949 µM
  viability, T/C: 3.4%
Second compound 1 µM, first compound 3 µM
  viability, T/C: 3.26%
Second compound 3.16 µM, first compound 0.00949 µM
  viability, T/C: 68.9%
Second compound 3.16 µM, first compound 0.03 µM
  viability, T/C: 64.4%
Second compound 3.16 µM, first compound 0.0949 µM
  viability, T/C: 41%
Second compound 3.16 µM, first compound 0.3 µM
  viability, T/C: 15.4%
Second compound 3.16 µM, first compound 0.949 µM
  viability, T/C: 3.52%
Second compound 3.16 µM, first compound 3 µM
  viability, T/C: 3.55%
Second compound 10 µM, first compound 0.00949 µM
  viability, T/C: 49.8%
Second compound 10 µM, first compound 0.03 µM
  viability, T/C: 48.4%
Second compound 10 µM, first compound 0.0949 µM
  viability, T/C: 36.3%
Second compound 10 µM, first compound 0.3 µM
  viability, T/C: 13.8%
Second compound 10 µM, first compound 0.949 µM
  viability, T/C: 3.3%
Second compound 10 µM, first compound 3 µM
  viability, T/C: 2.37%
